According to PubChem BioAssay (NCI):
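Cells were grown in 96-well plates and exposed to each compound for 48 hours at five concentrations; endpoints were interpolated linearly between bracketing concentrations, or set to the highest concentration if not reached. Abbreviation: GI50, concentration required for 50% inhibition of growth. TGI marks complete inhibition of growth.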

Tests used:
Assay in all cases: DTP human tumour cell line panel, 48 h
[1] = tested on: EKVX NSCLC
[2] = tested on: HS 578T breast
[3] = tested on: KM12 colon
[4] = tested on: M14 melanoma
[5] = tested on: NCI-H522 lung
[6] = tested on: NCI/ADR-RES ovarian
[7] = tested on: OVCAR-3 ovarian
[8] = tested on: OVCAR-4 ovarian
[9] = tested on: OVCAR-5 ovarian
[10] = tested on: SK-OV-3 ovarian

Structure (SMILES)	GI50 [1] [µM]	TGI [1] [µM]	GI50 [2] [µM]	TGI [2] [µM]	GI50 [3] [µM]	TGI [3] [µM]	GI50 [4] [µM]	TGI [4] [µM]	GI50 [5] [µM]	TGI [5] [µM]	GI50 [6] [µM]	TGI [6] [µM]	GI50 [7] [µM]	TGI [7] [µM]	GI50 [8] [µM]	TGI [8] [µM]	GI50 [9] [µM]	TGI [9] [µM]	GI50 [10] [µM]	TGI [10] [µM]
COC(=O)c1c(-c2cccs2)oc(-c2cccs2)c1C(=O)OC	56.8	> 100	35.8	> 100	32.5	> 100	20.3	55.2	25.5	69.7	31.6	> 94.5	30.4	> 94.5	77.8	> 100	> 95	> 100	> 100	> 100
CC(=O)OC12C=C(C)C(C(C)C1)C1C(=O)N(CCN3CCCCC3)C(=O)C12 (stereo unspecified)	> 50	> 50	48	> 50	> 50	> 50	> 50	> 50	> 50	> 50	> 50	> 50	–	–	> 50	> 50	> 50	> 50	> 50	> 50
C1CN(c2nnc(N3CCC3)nn2)C1	–	> 100	–	> 92.9	–	> 100	–	62.1	–	85.2	–	> 100	–	> 100	–	> 64.6	–	> 46.4	–	> 100
COc1cc(C2C3=C(COC3=O)N(CCO)c3cc4c(cc32)OCCO4)cc(OC)c1OC (stereo unspecified)	0.413	> 50	0.164	35.5	0.187	0.838	0.181	–	0.0626	0.185	6.75	> 40.7	0.135	0.315	0.416	> 50	2.09	> 50	0.224	> 14.5
COc1cccc2cc(N(C)c3nc(C)nc4c3CCC4)ccc12	< 0.01	30.7	< 0.01	30	< 0.01	10.7	< 0.01	14	< 0.01	< 0.01	< 0.01	16.1	< 0.01	< 0.01	< 0.0104	20	< 0.01	19.6	< 0.01	–
CCN(CC)CCCC(C)Nc1cc(-c2cccc(OC(F)(F)F)c2)nc2ccc(N3CCCC3)cc12 (stereo unspecified)	0.069	> 100	0.0337	3.22	0.0437	11.4	0.0361	1.16	0.0249	0.5	0.0453	6.27	0.0305	0.382	0.483	> 100	0.348	> 100	0.0779	98.7
O=C(NCC(F)(F)F)Nc1cccc(-c2cnc3cc(-c4ccc(F)cc4)ccn23)c1	5.17	> 100	0.733	> 100	0.347	31.7	1.15	> 100	0.225	0.962	1.82	> 68	0.812	15.8	1.66	> 100	8.33	> 86.3	1.96	> 54.2
O=C1/C(=C/c2ccc(F)cc2)CN(C(=O)CCN2CCC(=NO)CC2)C/C1=C\c1ccc(F)cc1	2.19	5.9	1.71	6.51	0.537	1.33	1.17	3.69	1.24	3.53	1.9	23.4	1.14	3.02	2.34	5.14	1.83	4.11	5.22	11.5
COc1ccc(-c2cncn2-c2cc(OC)c(OC)c(OC)c2)cc1	3.06	> 100	0.123	> 6.68	0.0224	1.53	0.179	12.7	0.019	0.283	0.0652	0.915	0.0282	0.0641	> 36.3	> 100	0.318	> 100	0.256	> 86.5
O=C(O)/C(Cc1cn[nH]n1)=N\O	–	> 100	–	> 100	–	> 100	–	> 100	–	> 100	–	> 100	–	> 100	–	> 100	–	> 100	–	> 100
CC(C)N(Cc1ccc(CN(C(=O)CCl)C(C)C)cc1)C(=O)CCl	2.36	5.63	2.75	16.8	1.75	3.54	1.86	7.12	0.156	0.342	2.49	7.73	1.69	3.22	1.38	3.63	1.91	3.97	1.83	3.35
O=C(CN(/C=C/C(=O)C(F)(F)F)c1ccc(Cl)cc1)c1ccc(Cl)c(Cl)c1	14.5	29.3	16.6	38.3	2.62	10.8	6.51	19.3	2.88	8.81	6.03	19.7	3.23	11.3	8.71	28.1	13.4	27.1	17.1	35.2
O=C(/C=C/C=C/c1ccccc1)c1ccco1	15.5	62.1	17.5	52.9	11	24.1	17.3	34.8	13.2	27	16.4	36.7	14.2	27.6	23.1	> 100	18.4	33.3	28.8	84.6
